This note sets out measurements from patent US9951087B2, “Fused ring analogues of anti-fibrotic agents” (Fibrotech Therapeutics PTY LTD, priority 2009, dated 2018).

For data set [1], the system named is rat mesangial cells. The data set can be described thus: Toxicity rank and cell condition observed in the proline incorporation assay. Also noted: key to Tox. Rank (4 = non-toxic): (4 = non-toxic). It is filed as cell-based. The settings on record: for Cell condition observed (sick, dead, some death, cells elongated): 100 μM; for Cell condition observed (sick, dead): 30 μM. The protocol:
(§1) A well-characterised cloned rat mesangial cell line (Kakizaki Y, Kraft N, Atkins R C: Differential control of mesangial cell proliferation by interferon-gamma. Clin Exp Immunol 85:157-163, 1991) was cultured in DMEM (5 mM glucose) with 5% FBS, 100U/mL penicillin, and 100 ug/mL streptomycin in humidified 5% CO2 atmosphere at 37 C. Cells were used up to passage 40.
(§2) Cells were plated into 24-well culture dishes in DMEM/5% FBS and allowed to adhere overnight. The subconfluent cells were then starved overnight in DMEM/0.1% FBS and 150 uM L-ascorbic acid, prior to pre-treatment with or without FibroTech compounds for 4 hours at 10, 30 or 100 uM in 0.1% DMSO, final concentration. TGF-beta 1 at 5 ng/mL (Peprotech) and tritiated proline (Perkin-Elmer, (2,3,4,5-^3H)-proline) at 1 uCi/mL were added and the incubation continued for a further 44 hours. Treatments were performed in triplicate.

In data set [2] the test system is rat mesangial cells. The data set can be described thus: Proline incorporation assay: reduction of TGF-beta 1 stimulated proline incorporation. It is filed as cell-based. The note with it: Mesangial cell, 44 h, TGF-beta 1 5 ng/mL, read-out: Percentage Reduction of TGF-Beta 1 Stimulated Proline Incorporation; for inhibition at 10 µM: 10 μM compound; for inhibition at 30 µM: 30 μM compound; for inhibition at 100 µM: 100 μM compound. The protocol:
as §1
Proline Incorporation Assay
as §2
After the incubation, cells were placed on ice and washed three times with ice cold PBS. They were then incubated on ice with 10% TCA for 30 minutes, followed by a final wash in cold 10% TCA. The cells were solubilized in 0.75 mL of 1M NaOH at 37 C for 45 minutes, or overnight at 4 C. Aliquots of the solubilized cells were neutralized in an equal amount of 1M HCl and counted in scintillant in a beta counter. Aliquots of neutralized solubilized cells were assayed for protein using the BioRad Bradford Protein Assay. Proline incorporation was normalized for protein content (cpm ^3H-proline incorporated per ug protein).
In order to compare the results of experiments performed on different days, the percentage inhibition of proline incorporation was calculated for each treatment by setting the TGF treatment at 0% inhibition and the control (incubation with media alone) at 100% inhibition.
Percentage Reduction of TGF-Beta 1 Stimulated Proline Incorporation: […]

For `COc1cc2c(cc1OC)CC(C(=O)Nc1ccccc1C(=O)O)=C2` [FT126, 2-(5,6-Dimethoxy-1H-indene-2-carboxamido)benzoic acid], the “Tox. Rank (4 = non-toxic)” value in the data set with rat mesangial cells [1] (no concentration stated) is reported as 4. In addition, in the data set with rat mesangial cells [2], the inhibition at 10 µM is roughly 55%, the inhibition at 30 µM was roughly 75% and the inhibition at 100 µM is roughly 100%.

Take `COc1ccc(/C=C/c2nc3ccccc3[nH]2)cc1OC` [FT121, (E)-2-(3,4-Dimethoxystyryl)-1H-benzo[d]imidazole]: in the data set with rat mesangial cells [1], the “Cell condition observed (sick, dead, some death, cells elongated)” value is “dead”. Also, in the data set with rat mesangial cells [1] (@30 uM), the “Tox. Rank (4 = non-toxic)” value is recorded as 3@30 uM. The “Tox. Rank (4 = non-toxic)” value in the data set with rat mesangial cells [1] (@100 uM) is 1@100 uM. In the data set with rat mesangial cells [2], the inhibition at 10 µM was roughly 60% and the inhibition at 30 µM was greater than 100%.

As for `COc1ccc(/C=C/C(=O)N2CC(=O)Nc3ccccc32)cc1OC` [FT125, (E)-4-(3-(3,4-Dimethoxyphenyl)acryloyl)-3,4-dihydroquinoxalin-2(1H)-one], in the data set on rat mesangial cells [1], the “Cell condition observed (sick, dead)” value is given as “sick” and the “Cell condition observed (sick, dead, some death, cells elongated)” value is given as “sick”. For the same molecule, the “Tox. Rank (4 = non-toxic)” value in the data set on rat mesangial cells [1] (no concentration stated) is on record as 2. Besides, in the data set with rat mesangial cells [2], the inhibition at 10 µM was 0%, the inhibition at 30 µM was determined as 0% and the inhibition at 100 µM was 0%.

As to `COc1ccc(/C=C/C(=O)N2CCOc3ccccc32)cc1OC` [FT122, (E)-1-(2,3-Dihydrobenzo[b][1,4]oxazin-4-yl)-3-(3,4-dimethoxyphenyl)prop-2-en-1-one], the “Cell condition observed (sick, dead, some death, cells elongated)” value in the data set on rat mesangial cells [1] is “dead”. Besides, the “Tox. Rank (4 = non-toxic)” value was 4@30 uM with rat mesangial cells [1] (@30 uM) and 1@100 uM in the data set on rat mesangial cells [1] (@100 uM). Moreover, the inhibition at 10 µM in the data set on rat mesangial cells [2] was roughly 25%. In addition, the inhibition at 30 µM in the data set on rat mesangial cells [2] was roughly 80%.

Regarding `COc1ccc(/C=C/c2nc3ccccc3c(=O)o2)cc1OC` [FT106, (E)-2-(3,4-Dimethoxystyryl)-4H-benzo[d][1,3]oxazin-4-one], in the data set with rat mesangial cells [1], the “Cell condition observed (sick, dead)” value is recorded as “sick” and the “Cell condition observed (sick, dead, some death, cells elongated)” value is on record as “dead”. Further, in the data set with rat mesangial cells [1] (@30 uM), the “Tox. Rank (4 = non-toxic)” value is listed as 2@30 uM. Moreover, the “Tox. Rank (4 = non-toxic)” value in the data set on rat mesangial cells [1] (@100 uM) is 1@100 uM. Also, in the data set with rat mesangial cells [2], the inhibition at 10 µM was found to be 0% and the inhibition at 30 µM is 0%.

Turning to `COc1cc2c(cc1OC)CCC(C(=O)Nc1ccccc1C(=O)O)=C2` [FT129, 2-(6,7-Dimethoxy-1,2-dihydronaphthalene-3-carboxamido)benzoic acid], in the data set with rat mesangial cells [1], the “Cell condition observed (sick, dead, some death, cells elongated)” value is listed as “dead”. Moreover, the “Tox. Rank (4 = non-toxic)” value with rat mesangial cells [1] (@30 uM) is 2@30 uM. In addition, the “Tox. Rank (4 = non-toxic)” value in the data set with rat mesangial cells [1] (@100 uM) is 1@100 uM. Besides, in the data set with rat mesangial cells [2], the inhibition at 10 µM is roughly 10% and the inhibition at 30 µM was roughly 75%.

Consider `COc1cc2c(cc1OC)CC(C(=O)Nc1ccccc1C(=O)O)CC2` (centres unmarked) [FT130, 2-(6,7-Dimethoxy-1,2,3,4-tetrahydronaphthalene-3-carboxamido)benzoic acid], for which, in the data set with rat mesangial cells [1] (@100 uM), the “Tox. Rank (4 = non-toxic)” value is listed as 2@100 uM. Moreover, in the data set with rat mesangial cells [2], the inhibition at 10 µM is roughly 10%, the inhibition at 30 µM is roughly 30% and the inhibition at 100 µM was roughly 50%.

`COc1cc2c(cc1OC)S(=O)(=O)C(C(=O)Nc1ccccc1C(=O)O)=C2` [FT128, 2-(1,1-Dioxo-5,6-dimethoxybenzo[b]thiophene-2-carboxamido)benzoic acid]: the “Cell condition observed (sick, dead, some death, cells elongated)” value in the data set with rat mesangial cells [1] was “(some death)”. Moreover, in the data set with rat mesangial cells [1] (@100 uM), the “Tox. Rank (4 = non-toxic)” value was 3@100 uM. In the data set on rat mesangial cells [2], the inhibition at 10 µM was roughly 20%, the inhibition at 30 µM was roughly 20% and the inhibition at 100 µM was roughly 40%.

For `COc1cc2nc(C(=O)Nc3ccccc3C(=O)O)[nH]c2cc1OC` [FT127, 2-(5,6-Dimethoxy-1H-benzo[d]imidazole-2-carboxamido)benzoic acid], in the data set with rat mesangial cells [1] (no concentration stated), the “Tox. Rank (4 = non-toxic)” value was determined as 4. Further, in the data set on rat mesangial cells [2], the inhibition at 10 µM turned out to be 0%, the inhibition at 30 µM was determined as 0% and the inhibition at 100 µM is roughly 50%.
